Earlier results on 3 compounds are cited in patent US8097423B2, “MN/CA IX and breast cancer therapy” (Institute of Virology, priority 2008, dated 2012).

For series [1] the following is noted: weak basic drug.
The conditions of series [2]: Phase I and II clinical trials.
The subject of a further series is T2-4 N0-1 breast cancer. As to conditions: breast cancer patients, primary systemic treatment, four cycles before surgery; no significant difference between arms.

On to `CC/C(=C(\c1ccccc1)c1ccc(OCCN(C)C)cc1)c1ccccc1` [Tamoxifen, tamoxifen], for which the pKa in series [1] is reported as 8.8. Take Rencarex®: an MN-specific drug: the “tolerability / drug-related side effects” value in series [2] was “well-tolerated, with no serious drug-related side effects”. For the compound `COc1cccc2c1C(=O)c1c(O)c3c(c(O)c1C2=O)C[C@@](O)(C(=O)CO)C[C@@H]3O[C@H]1C[C@H](N)[C@@H](O)[C@H](C)O1` [epirubicin], the treatment responses in the series with T2-4 N0-1 breast cancer was 76%.
